Holding throughout (type): cell-based
For experiment [1], the target named is Nuclear receptor subfamily 4immunitygroup A member 1 (Homo sapiens, UniProt P22736). In words: Agonist activity at human Nur77 LBD transiently transfected in HEK293T cells incubated for 16 hrs by Gal4-hybrid reporter gene based Dual-glo luciferase assay.
Experiment [2] has as its target T1, Nuclear receptor subfamily 4 group A member 2 (Homo sapiens, UniProt P43354). In words: Agonist activity at human Nurr1 LBD transiently transfected in HEK293T cells incubated for 16 hrs by Gal4-hybrid reporter gene based Dual-glo luciferase assay. The conditions noted are these: read-out: EC50. A general note: Reporter assays use an easily measured gene product as a stand-in for the process of interest.

Experiment [3] addresses Nuclear receptor subfamily 4 group A member 3 (Homo sapiens, UniProt Q92570). In words: Agonist activity at human NOR-1 LBD transiently transfected in HEK293T cells incubated for 16 hrs by Gal4-hybrid reporter gene based Dual-glo luciferase assay.
Experiment [4] addresses T2, Thyroid hormone receptor alpha (Homo sapiens) (UniProt P10827).
T2 sequence (whole entry): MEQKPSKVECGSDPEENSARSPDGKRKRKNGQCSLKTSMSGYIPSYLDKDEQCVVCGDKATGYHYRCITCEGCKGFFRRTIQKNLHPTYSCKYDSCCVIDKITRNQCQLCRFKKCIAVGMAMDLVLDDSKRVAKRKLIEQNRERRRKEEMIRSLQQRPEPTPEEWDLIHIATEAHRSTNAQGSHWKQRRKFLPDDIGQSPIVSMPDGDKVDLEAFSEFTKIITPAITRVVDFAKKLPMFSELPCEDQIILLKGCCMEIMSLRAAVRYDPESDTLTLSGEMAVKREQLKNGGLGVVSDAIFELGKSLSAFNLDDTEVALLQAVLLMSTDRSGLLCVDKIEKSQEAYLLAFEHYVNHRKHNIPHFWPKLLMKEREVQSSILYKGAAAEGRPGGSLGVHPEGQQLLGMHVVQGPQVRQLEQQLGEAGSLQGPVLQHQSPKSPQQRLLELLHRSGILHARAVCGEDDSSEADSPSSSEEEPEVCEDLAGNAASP
In words: Agonist activity at THRalpha LBD (unknown origin) transiently transfected in HEK293T cells at 1 uM incubated for 16 hrs by Gal4-hybrid reporter gene based Dual-glo luciferase assay.

For experiment [5], the target named is T3, Retinoic acid receptor alpha (Homo sapiens) (UniProt P10276).
T3 sequence (whole entry): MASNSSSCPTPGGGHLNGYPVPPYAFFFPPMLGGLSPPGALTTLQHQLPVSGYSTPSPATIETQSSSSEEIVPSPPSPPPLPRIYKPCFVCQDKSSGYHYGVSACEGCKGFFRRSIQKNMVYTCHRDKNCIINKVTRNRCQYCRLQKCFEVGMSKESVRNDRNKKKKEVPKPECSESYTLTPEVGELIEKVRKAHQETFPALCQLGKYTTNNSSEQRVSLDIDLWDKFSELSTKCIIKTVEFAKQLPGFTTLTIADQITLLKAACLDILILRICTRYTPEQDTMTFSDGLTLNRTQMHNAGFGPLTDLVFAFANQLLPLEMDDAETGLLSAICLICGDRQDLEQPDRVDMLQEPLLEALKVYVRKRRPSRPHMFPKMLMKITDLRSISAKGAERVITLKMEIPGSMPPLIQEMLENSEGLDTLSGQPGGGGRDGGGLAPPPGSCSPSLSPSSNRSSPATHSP
In words: Agonist activity at RARalpha LBD (unknown origin) transiently transfected in HEK293T cells at 1 uM incubated for 16 hrs by Gal4-hybrid reporter gene based Dual-glo luciferase assay.

In experiment [6] the target is T4, Vitamin D3 receptor (Homo sapiens) (UniProt P11473).
T4 sequence (whole entry): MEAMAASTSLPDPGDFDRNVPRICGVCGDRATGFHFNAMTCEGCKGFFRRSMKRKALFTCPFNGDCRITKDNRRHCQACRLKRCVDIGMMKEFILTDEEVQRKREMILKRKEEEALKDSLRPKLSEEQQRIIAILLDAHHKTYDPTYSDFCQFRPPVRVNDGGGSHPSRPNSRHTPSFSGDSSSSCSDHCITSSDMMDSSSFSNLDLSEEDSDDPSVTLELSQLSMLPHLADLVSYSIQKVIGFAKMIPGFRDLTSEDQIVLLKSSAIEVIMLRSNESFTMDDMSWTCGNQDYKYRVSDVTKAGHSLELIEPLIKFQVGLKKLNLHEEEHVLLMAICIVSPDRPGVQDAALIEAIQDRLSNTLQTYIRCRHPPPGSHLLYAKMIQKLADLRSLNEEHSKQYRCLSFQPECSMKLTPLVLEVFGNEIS
The experiment in a line: Agonist activity at VDR LBD (unknown origin) transiently transfected in HEK293T cells at 1 uM incubated for 16 hrs by Gal4-hybrid reporter gene based Dual-glo luciferase assay.

Experiment [7] can be described thus: Selectivity ratio for agonist activity at RARalpha LBD (unknown origin) transiently transfected in HEK293T cells to agonist activity at human Nur77 LBD transiently transfected in HEK293T cells.
A short description of experiment [8]: Selectivity ratio for agonist activity at PPARalpha LBD (unknown origin) transiently transfected in HEK293T cells to agonist activity at human Nur77 LBD transiently transfected in HEK293T cells.
Experiment [9] in a line: Selectivity ratio for agonist activity at VDR LBD (unknown origin) transiently transfected in HEK293T cells to agonist activity at human Nur77 LBD transiently transfected in HEK293T cells.
Experiment [10] is described as follows: Selectivity ratio for agonist activity at RXRalpha LBD (unknown origin) transiently transfected in HEK293T cells to agonist activity at human Nur77 LBD transiently transfected in HEK293T cells.
Experiment [11] is described as follows: Selectivity ratio for agonist activity at RARalpha LBD (unknown origin) transiently transfected in HEK293T cells to agonist activity at human Nurr1 LBD transiently transfected in HEK293T cells.
The nature of experiment [12]: Selectivity ratio for agonist activity at VDR LBD (unknown origin) transiently transfected in HEK293T cells to agonist activity at human Nurr1 LBD transiently transfected in HEK293T cells.
The nature of experiment [13]: Selectivity ratio for agonist activity at THRalpha LBD (unknown origin) transiently transfected in HEK293T cells to agonist activity at human NOR-1 LBD transiently transfected in HEK293T cells.
Experiment [14] in a line: Selectivity ratio for agonist activity at VDR LBD (unknown origin) transiently transfected in HEK293T cells to agonist activity at human NOR-1 LBD transiently transfected in HEK293T cells.
In experiment [15] the target is T1, Nuclear receptor subfamily 4 group A member 2. The experiment in a line: Agonist activity at full length human Nurr1 transiently transfected in HEK293T cells co-transfected with pFR-Luc-DR5 incubated for 16 hrs by Gal4-hybrid reporter gene based Dual-glo luciferase assay.

Active and inactive are the calls of the source. No cut-off for these calls is given here. Some results are limits rather than exact numbers.

Usually EC50 stands for the midpoint of the concentration-response curve.

T1 sequence (P43354 whole entry, the tested form may be a part): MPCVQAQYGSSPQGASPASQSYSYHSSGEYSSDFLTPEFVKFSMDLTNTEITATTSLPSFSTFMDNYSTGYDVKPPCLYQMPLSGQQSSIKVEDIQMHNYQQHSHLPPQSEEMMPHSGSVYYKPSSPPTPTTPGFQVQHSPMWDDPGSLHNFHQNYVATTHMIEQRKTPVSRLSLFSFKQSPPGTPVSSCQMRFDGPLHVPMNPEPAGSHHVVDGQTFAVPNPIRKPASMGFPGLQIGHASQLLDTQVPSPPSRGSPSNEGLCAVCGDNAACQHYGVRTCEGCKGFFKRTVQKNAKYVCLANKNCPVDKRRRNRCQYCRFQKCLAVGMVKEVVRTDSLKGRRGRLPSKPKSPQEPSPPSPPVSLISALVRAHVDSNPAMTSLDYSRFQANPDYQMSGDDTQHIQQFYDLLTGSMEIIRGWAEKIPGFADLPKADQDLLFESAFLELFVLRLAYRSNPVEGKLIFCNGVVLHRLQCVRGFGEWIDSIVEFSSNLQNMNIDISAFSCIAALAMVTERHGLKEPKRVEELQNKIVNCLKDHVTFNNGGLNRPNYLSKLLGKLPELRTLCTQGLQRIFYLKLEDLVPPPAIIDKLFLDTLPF
Chain of Nuclear receptor subfamily 4immunitygroup A member 1 (P22736 whole entry, the tested form may be a part): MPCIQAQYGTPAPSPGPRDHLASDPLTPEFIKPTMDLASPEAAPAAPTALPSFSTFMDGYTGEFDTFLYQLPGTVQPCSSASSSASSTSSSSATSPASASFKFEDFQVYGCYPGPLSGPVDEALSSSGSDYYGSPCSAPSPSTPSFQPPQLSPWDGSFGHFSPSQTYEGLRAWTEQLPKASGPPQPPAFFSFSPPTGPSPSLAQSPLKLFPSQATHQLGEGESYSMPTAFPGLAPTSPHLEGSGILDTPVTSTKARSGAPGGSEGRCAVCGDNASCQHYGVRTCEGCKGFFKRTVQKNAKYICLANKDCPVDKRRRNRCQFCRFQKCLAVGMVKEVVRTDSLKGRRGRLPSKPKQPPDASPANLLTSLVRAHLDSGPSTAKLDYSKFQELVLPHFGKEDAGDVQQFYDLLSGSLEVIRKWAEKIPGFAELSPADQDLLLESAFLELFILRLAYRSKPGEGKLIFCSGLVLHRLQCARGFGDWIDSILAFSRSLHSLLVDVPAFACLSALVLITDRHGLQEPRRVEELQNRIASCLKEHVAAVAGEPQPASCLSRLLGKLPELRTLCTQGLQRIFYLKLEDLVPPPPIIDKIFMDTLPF
Chain of Nuclear receptor subfamily 4 group A member 3 (Q92570 whole entry, the tested form may be a part): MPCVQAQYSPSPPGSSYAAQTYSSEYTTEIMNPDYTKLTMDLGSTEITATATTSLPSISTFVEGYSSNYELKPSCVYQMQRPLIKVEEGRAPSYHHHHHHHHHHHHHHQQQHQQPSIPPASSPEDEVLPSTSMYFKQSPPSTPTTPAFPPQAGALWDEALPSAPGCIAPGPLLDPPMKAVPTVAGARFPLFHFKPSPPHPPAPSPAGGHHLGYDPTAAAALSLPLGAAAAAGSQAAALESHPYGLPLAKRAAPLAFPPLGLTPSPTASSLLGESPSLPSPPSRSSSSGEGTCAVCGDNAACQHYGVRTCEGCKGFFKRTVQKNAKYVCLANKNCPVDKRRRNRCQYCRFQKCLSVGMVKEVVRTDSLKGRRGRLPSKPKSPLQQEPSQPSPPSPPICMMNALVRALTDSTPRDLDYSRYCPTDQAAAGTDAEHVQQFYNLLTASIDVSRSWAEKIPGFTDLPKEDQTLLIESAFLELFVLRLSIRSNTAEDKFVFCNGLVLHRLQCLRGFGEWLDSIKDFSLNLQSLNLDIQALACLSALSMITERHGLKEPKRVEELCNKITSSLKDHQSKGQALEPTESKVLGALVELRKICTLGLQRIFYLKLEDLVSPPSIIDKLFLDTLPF

In the case of `CC(C)(C)c1ccc(COc2cccc(C(=O)O)c2)cc1`, the EC50 in [1] was 140 nM; in experiment [2], 120 nM; in [3], 70 nM; in experiment [15], 12 nM. The result in experiment [4], in experiment [5] and in [6] was inactive. The Selectivity ratio in [7], in experiment [8], in experiment [9], in experiment [10], in experiment [11] and in experiment [12] was over 30 each time. Besides, the Selectivity ratio in experiment [13] and in experiment [14] was over 30 in each case.

The record behind these values is ChEMBL document CHEMBL5390264, “Exploring Fatty Acid Mimetics as NR4A Ligands” (J Med Chem, 2023).
